This is an account of results in US6646181B1, “Solid matrix control of seed conditioning using selected cell cycle stages” (Kamterter II, L.L.C., priority 1987, dated 2003).

The test system of this experiment is lettuce (Lactuca sativa) 'Montello'. Kind of experiment: Alleviation of thermodormancy: lettuce germination at 35 C. The class given is in vivo. The following applies: 35 C in the dark, after 10 days, priming 20-24 hours. How it is done:
Alleviation of thermodormancy by priming was studied in lettuce (Lactuca sativa) ‘Montello’. SMP of lettuce was performed with Agro-Lig (Table 1). Conventional priming treatments included: −1.5 MPa PEG 8000 (Bradford, 1986, supra) and 1.0% K3PO4 (Cantliffe, et al., 1984, Plant Physiol. 75:290-294). After priming, seeds were rinsed and allowed to dry. Seeds were placed to germinate on moistened blotters in closed containers. The containers were maintained at a constant 35 C in the dark. There were four replications of 50 seeds each and the percent germination was determined after 10 days.

SMILES strings stand for the structures.

`O=P([O-])([O-])[O-].[K+].[K+].[K+]` [1.0% K3PO4, K3PO4]: the Percent germination was determined as 71 a %.
